Data as given in patent publication US20240228510A1, “KRAS G12C INHIBITORS” (Mirati Therapeutics, Inc., priority 2021, published 2024).

Each molecule was assayed on KRas G12C (assay: Inhibition of KRas G12C-mediated pERK in H358 cells (Phospho-ERK In-Cell Western)). Conditions: Homo sapiens; NCI-H358 cells; 3 hours compound; pERK(Thr202/Tyr204) normalized to GAPDH; 4 parameter fit.
Format: cell-based
Procedure: The cellular inhibition of KRAs G12C by exemplary compounds of the present invention was determined by measuring the amount of a downstream marker of KRas activity, phosphorylated ERK (“Phospho-ERK”).
NCI-H358 cells (ATCC CRL-5807) express KRas G12C and were grown in RPMI medium supplemented with 10% fetal bovine serum, penicillin/streptomycin and 10 mM HEPES. Cells were plated in poly-D-Lysine coated 96-well plates at a concentration of 50,000 cells/well and allowed to attach for 8-12 hours. Diluted compounds were then added at a final concentration of 0.5% DMSO. After 3 hours, the medium was removed, 150 μL of 4% formaldehyde was added and the plates were incubated for 20 minutes. The plates were washed with PBS, and permeabilized using 150 μL of ice cold 100% methanol for 10 minutes. Non-specific antibody binding to the plates was blocked using 100 μL Licor Blocking Buffer (Li-Cor Biotechnology, Lincoln NE) for 1 hour at room temperature. Positive control samples and samples lacking cells were parallel processed with test samples as standards.
The amount Phospho-ERK was determined using an antibody specific for the phosphorylated form of ERK and compared to the amount of GAPDH. Primary antibodies used for detection were added as follows: Phospho-ERK (Cell Signaling cs9101) diluted 1:500 and GAPDH (Millipore MAB374) diluted 1:5000 in Licor block+0.05% Tween 20. The plates were incubated for 2 hours at room temperature. The plates were washed with PBS+0.05% Tween 20.
Secondary antibodies used to visualize primary antibodies were added as follows: Anti-rabbit-680 diluted 1:1000 and Anti-mouse-800 diluted 1:1000 in Licor Block+0.05% Tween 20 and incubated for 1 hour at room temperature. The plates were washed with PBS+0.05% Tween 20. A 100 μL aliquot of PBS was added to each well and the plates were read on a LICOR AERIUS plate reader.
The pERK(Thr202/Tyr204) signal was normalized with the GAPDH signal and percent of DMSO control values were calculated. IC50 values were generated using a 4 parameter fit of the dose response curve.

`C#Cc1c(F)ccc2cccc(-c3ncc4c(N5C[C@@H]6[C@H]5CCN6C(=O)C=C)c(Cl)cnc4c3F)c12` [Example 13, 1-((1R,5R)-6-(3-chloro-7-(8-ethynyl-7-fluoronaphthalen-1-yl)-8-fluoro-1,6-naphthyridin-4-yl)-2,6-diazabicyclo[3.2.0]heptan-2-yl)prop-2-en-1-one] and `C#Cc1c(F)ccc2cccc(-c3ncc4c(N5C[C@@H]6[C@H]5CCN6C(=O)C=C)c(OC)cnc4c3F)c12` [Example 6, 1-((1R,5R)-6-(7-(8-ethynyl-7-fluoronaphthalen-1-yl)-8-fluoro-3-methoxy-1,6-naphthyridin-4-yl)-2,6-diazabicyclo[3.2.0]heptan-2-yl)prop-2-en-1-one] are within 1.5-fold of each other in IC50: 31 nM for the first, 22 nM for the second.

Compared with `C#Cc1cccc2cccc(-c3ncc4c(N5C[C@@H]6[C@H]5CCN6C(=O)C=C)c(Cl)cnc4c3F)c12` [Example 3, 1-((1R,5R)-6-(3-chloro-7-(8-ethynylnaphthalen-1-yl)-8-fluoro-1,6-naphthyridin-4-yl)-2,6-diazabicyclo[3.2.0]heptan-2-yl)prop-2-en-1-one], `C#Cc1cccc2cc(O)cc(-c3ncc4c(N5C[C@@H]6[C@H]5CCN6C(=O)C=C)c(Cl)cnc4c3F)c12` [Example 8, 1-((1R,5R)-6-(3-chloro-7-(8-ethynyl-3-hydroxynaphthalen-1-yl)-8-fluoro-1,6-naphthyridin-4-yl)-2,6-diazabicyclo[3.2.0]heptan-2-yl)prop-2-en-1-one] is 75-fold lower in IC50: 75 nM for the first, 1 nM for the second. The second is the more potent here.

`C#Cc1c(F)ccc2cccc(-c3ncc4c(N5C[C@@H]6[C@H]5CCN6C(=O)C=C)ccnc4c3F)c12` [Example 11, 1-((1R,5R)-6-(7-(8-ethynyl-7-fluoronaphthalen-1-yl)-8-fluoro-1,6-naphthyridin-4-yl)-2,6-diazabicyclo[3.2.0]heptan-2-yl)prop-2-en-1-one] and `C#Cc1c(F)ccc2cccc(-c3ncc4c(N5C[C@@H]6[C@H]5CCN6C(=O)C=C)cc(C)nc4c3F)c12` [Example 14, 1-((1R,5R)-6-(7-(8-ethynyl-7-fluoronaphthalen-1-yl)-8-fluoro-2-methyl-1,6-naphthyridin-4-yl)-2,6-diazabicyclo[3.2.0]heptan-2-yl)prop-2-en-1-one] are within 1.5-fold of each other in IC50: 17 nM for the first, 21 nM for the second.

First: C=CC(=O)N1CC[C@@H]2[C@H]1CN2c1snc2c(F)c(-c3cccc4ccc(F)c(Cl)c34)ncc12 [Example 17, 1-((1R,5R)-6-(6-(8-chloro-7-fluoronaphthalen-1-yl)-7-fluoroisothiazolo[4,3-c]pyridin-3-yl)-2,6-diazabicyclo[3.2.0]heptan-2-yl)prop-2-en-1-one]
Second: C=CC(=O)N1CC[C@@H]2[C@H]1CN2c1c(Cl)cnc2c(F)c(-c3cccc4ccc(F)c(Cl)c34)ncc12 [Example 4, 1-((1R,5R)-6-(3-chloro-7-(8-chloro-7-fluoronaphthalen-1-yl)-8-fluoro-1,6-naphthyridin-4-yl)-2,6-diazabicyclo[3.2.0]heptan-2-yl)prop-2-en-1-one]
The IC50 of the first is 36-fold higher: 6000 nM for the first, 169 nM for the second. The second is the more potent here.

`C=CC(=O)N(C)C1CN(c2snc3c(F)c(-c4cccc5ccc(F)c(Cl)c45)ncc23)C1` [Example 21, N-(1-(6-(8-chloro-7-fluoronaphthalen-1-yl)-7-fluoroisothiazolo[4,3-c]pyridin-3-yl)azetidin-3-yl)-N-methylacrylamide] and `C=CC(=O)N1CC2(C1)CN(c1snc3c(F)c(-c4cccc5ccc(F)c(Cl)c45)ncc13)C2` [Example 20, 1-(6-(6-(8-chloro-7-fluoronaphthalen-1-yl)-7-fluoroisothiazolo[4,3-c]pyridin-3-yl)-2,6-diazaspiro[3.3]heptan-2-yl)prop-2-en-1-one] are within 1.5-fold of each other in IC50: 9000 nM for the first, 7000 nM for the second.

Compared with `C=CC(=O)N1CCN(c2ccnc3c(F)c(-c4cccc5ccc(F)c(Cl)c45)ncc23)CC1` [Example 1, 1-(4-(7-(8-chloro-7-fluoronaphthalen-1-yl)-8-fluoro-1,6-naphthyridin-4-yl)piperazin-1-yl)prop-2-en-1-one], `C=CC(=O)N1CCN(c2c(C)cnc3c(F)c(-c4cccc5ccc(F)c(Cl)c45)ncc23)CC1` [Example 5, 1-(4-(7-(8-chloro-7-fluoronaphthalen-1-yl)-8-fluoro-3-methyl-1,6-naphthyridin-4-yl)piperazin-1-yl)prop-2-en-1-one] is 1.8-fold higher in IC50: 2740 nM for the first, 5000 nM for the second.

Going from `C#Cc1c(F)ccc2cccc(-c3ncc4c(N5C[C@@H]6[C@H]5CCN6C(=O)C=C)c(C#N)cnc4c3F)c12` [Example 12, 4-((1R,5R)-2-acryloyl-2,6-diazabicyclo[3.2.0]heptan-6-yl)-7-(8-ethynyl-7-fluoronaphthalen-1-yl)-8-fluoro-1,6-naphthyridine-3-carbonitrile] to `C#Cc1cccc2cccc(-c3ncc4c(N5C[C@@H]6[C@H]5CCN6C(=O)C=C)snc4c3F)c12` [Example 19, 1-((1R,5R)-6-(6-(8-ethynylnaphthalen-1-yl)-7-fluoroisothiazolo[4,3-c]pyridin-3-yl)-2,6-diazabicyclo[3.2.0]heptan-2-yl)prop-2-en-1-one], the IC50 rises from 24 nM to 748 nM (31-fold).

Compared with `C=CC(=O)N1CCN(c2c(OC)cnc3c(F)c(-c4cccc5ccc(F)c(Cl)c45)ncc23)CC1` [Example 9, 1-(4-(7-(8-chloro-7-fluoronaphthalen-1-yl)-8-fluoro-3-methoxy-1,6-naphthyridin-4-yl)piperazin-1-yl)prop-2-en-1-one], `C=CC(=O)N1CCN(c2c(F)cnc3c(F)c(-c4cccc5ccc(F)c(Cl)c45)ncc23)CC1` [Example 2, 1-(4-(7-(8-chloro-7-fluoronaphthalen-1-yl)-3,8-difluoro-1,6-naphthyridin-4-yl)piperazin-1-yl)prop-2-en-1-one] is 3-fold lower in IC50: 9000 nM for the first, 3050 nM for the second.

Going from `C#Cc1c(F)ccc2cccc(-c3ncc4c(N5[C@@H]6CCN(C(=O)C=C)[C@@H]6[C@@H]5C)cc(C)nc4c3F)c12` [Example 16, 1-((1R,5R,7S)-6-(7-(8-ethynyl-7-fluoronaphthalen-1-yl)-8-fluoro-2-methyl-1,6-naphthyridin-4-yl)-7-methyl-2,6-diazabicyclo[3.2.0]heptan-2-yl)prop-2-en-1-one] to `C#Cc1c(F)ccc2cccc(-c3ncc4c(N5[C@@H]6CCN(C(=O)C=C)[C@@H]6[C@@H]5C)cc(OC)nc4c3F)c12` [Example 15, 1-((1R,5R,7S)-6-(7-(8-ethynyl-7-fluoronaphthalen-1-yl)-8-fluoro-2-methoxy-1,6-naphthyridin-4-yl)-7-methyl-2,6-diazabicyclo[3.2.0]heptan-2-yl)prop-2-en-1-one], the IC50 rises from 73 nM to 1440 nM (20-fold).

Compared with `C#Cc1cccc2cc(O)cc(-c3ncc4c(N5C[C@@H]6[C@H]5CCN6C(=O)C=C)snc4c3F)c12` [Example 18, 1-((1R,5R)-6-(6-(8-ethynyl-3-hydroxynaphthalen-1-yl)-7-fluoroisothiazolo[4,3-c]pyridin-3-yl)-2,6-diazabicyclo[3.2.0]heptan-2-yl)prop-2-en-1-one], `C=CC(=O)N1CC2(CCN(c3snc4c(F)c(-c5cccc6ccc(F)c(Cl)c56)ncc34)CC2)C1` [Example 22, 1-(7-(6-(8-chloro-7-fluoronaphthalen-1-yl)-7-fluoroisothiazolo[4,3-c]pyridin-3-yl)-2,7-diazaspiro[3.5]nonan-2-yl)prop-2-en-1-one] is 570-fold higher in IC50: 14 nM for the first, 8000 nM for the second.

First: C=CC(=O)N1CCN(c2c(Cl)cnc3c(F)c(-c4cccc5ccc(F)c(Cl)c45)ncc23)CC1 [Example 7, 1-(4-(3-chloro-7-(8-chloro-7-fluoronaphthalen-1-yl)-8-fluoro-1,6-naphthyridin-4-yl)piperazin-1-yl)prop-2-en-1-one]
Second: C=CC(=O)N1CCN(c2c(C#N)cnc3c(F)c(-c4cccc5ccc(F)c(Cl)c45)ncc23)CC1 [Example 10, 4-(4-acryloylpiperazin-1-yl)-7-(8-chloro-7-fluoronaphthalen-1-yl)-8-fluoro-1,6-naphthyridine-3-carbonitrile]
The IC50 of the first is 1.6-fold higher: 5910 nM for the first, 3680 nM for the second.
